Patent US9416126B2, “Compounds inhibiting leucine-rich repeat kinase enzyme activity” (Merck Sharp & Dohme Corp., priority 2013, dated 2016)

Assays:
Format in all cases: biochemical
[1] = biological target: T1, LRRK2(G2019S mutation, GST-LRRK2(amino acids 970-2527)) (Homo sapiens (Human), UniProt Q5S007, G2019S); assay: LRRK2 Km ATP LanthaScreen Assay; conditions: Km ATP (184 μM ATP solution), G2019S LRRK2, mean IC50
How it was run: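 TR-FRET: GST-LRRK2 970-2527 G2019S (2.5 nM solution) preincubated 30 min with compound (98 μM top, 1:2.15 dilutions), then 800 nM fluorescein-LRRKtide and 184 μM ATP solution added for 60 min at room temperature in Tris pH 8.5 buffer. Stopped with EDTA and Tb anti-phospho-LRRKtide antibody; IC50 is a mean of several tests.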

[2] = biological target: T1, LRRK2(G2019S mutation, GST-LRRK2(amino acids 970-2527)); assay: LRRK2 5 mM ATP LanthaScreen Assay
Experimental: The data presented for the 5 mM and Km ATP LanthaScreen™ Assay represents mean IC50 values based on several test results and may have reasonable. deviations depending on the specific conditions and reagents used. Reagents for the LRRK2 5 mM and Km ATP LanthaScreen™ Assay were purchased from Life Technologies Corporation.
LRRK2 5 mM ATP LanthaScreen™ Assay
a) 400 nl of a 1:2.15 serial dilution of test compound(98 μM top assay concentration) is spotted via Labcyte Echo to certain wells in a 384 well black, untreated plate. Control wells contain 400 nl of either DMSO or 400 nl of a known inhibitor in DMSO.
b) 10 μl of a 2.5 nM LRRK2(G2019S mutation, GST-LRRK2(amino acids 970-2527)) enzyme solution in 1× assay buffer(50 mM Tris pH 8.5, 10 mM MgCl2, 0.01% Brij-35, 1.0 mM EGTA, 2 mM DTT, 0.05 mM NaVO4) is added to all wells.
c) A 30 minute room temperature incubation is followed by addition of 10 μl of 800 nM fluorescein labeled LRRKtide peptide substrate and 10 mM ATP solution in 1× assay buffer to all wells.
d) After a 35 minute room temperature incubation, 20 μl of TR-FRET Dilution Buffer(Invitrogen PV3756B) containing 4 nM Tb-labeled anti-phospho LRRKtide antibody and 20 mM EDTA is added to all wells.
e) Plates are incubated at room temperature for 1 hour and read on an Envision™ multi-mode plate reader with LanthaScreen™ settings. Results are analysed using Assay Data Analyzer.

kinases [3] = biological target: kinases (Homo sapiens, UniProt P15056, V600E); assay: Kinase selectivity using Z'-LYTE or Adapta; conditions: 1 μM of Example; Z-LYTE platform
kinases [4] = assay: Kinase selectivity using Z'-LYTE or Adapta; conditions: 1 μM of Example; for percent inhibition IRAK1: Adapta platform; for percent inhibition AURKB (Aurora B) / percent inhibition CDK1/cyclin B / percent inhibition CHEK2 (CHK2) / percent inhibition CLK2 / percent inhibition DYRK1A / percent inhibition JAK3 / percent inhibition MAPK1 (ERK2) / percent inhibition MAPK8 (JNK1): Z-LYTE platform

T1 sequence (Q5S007 970-2527 G2019S): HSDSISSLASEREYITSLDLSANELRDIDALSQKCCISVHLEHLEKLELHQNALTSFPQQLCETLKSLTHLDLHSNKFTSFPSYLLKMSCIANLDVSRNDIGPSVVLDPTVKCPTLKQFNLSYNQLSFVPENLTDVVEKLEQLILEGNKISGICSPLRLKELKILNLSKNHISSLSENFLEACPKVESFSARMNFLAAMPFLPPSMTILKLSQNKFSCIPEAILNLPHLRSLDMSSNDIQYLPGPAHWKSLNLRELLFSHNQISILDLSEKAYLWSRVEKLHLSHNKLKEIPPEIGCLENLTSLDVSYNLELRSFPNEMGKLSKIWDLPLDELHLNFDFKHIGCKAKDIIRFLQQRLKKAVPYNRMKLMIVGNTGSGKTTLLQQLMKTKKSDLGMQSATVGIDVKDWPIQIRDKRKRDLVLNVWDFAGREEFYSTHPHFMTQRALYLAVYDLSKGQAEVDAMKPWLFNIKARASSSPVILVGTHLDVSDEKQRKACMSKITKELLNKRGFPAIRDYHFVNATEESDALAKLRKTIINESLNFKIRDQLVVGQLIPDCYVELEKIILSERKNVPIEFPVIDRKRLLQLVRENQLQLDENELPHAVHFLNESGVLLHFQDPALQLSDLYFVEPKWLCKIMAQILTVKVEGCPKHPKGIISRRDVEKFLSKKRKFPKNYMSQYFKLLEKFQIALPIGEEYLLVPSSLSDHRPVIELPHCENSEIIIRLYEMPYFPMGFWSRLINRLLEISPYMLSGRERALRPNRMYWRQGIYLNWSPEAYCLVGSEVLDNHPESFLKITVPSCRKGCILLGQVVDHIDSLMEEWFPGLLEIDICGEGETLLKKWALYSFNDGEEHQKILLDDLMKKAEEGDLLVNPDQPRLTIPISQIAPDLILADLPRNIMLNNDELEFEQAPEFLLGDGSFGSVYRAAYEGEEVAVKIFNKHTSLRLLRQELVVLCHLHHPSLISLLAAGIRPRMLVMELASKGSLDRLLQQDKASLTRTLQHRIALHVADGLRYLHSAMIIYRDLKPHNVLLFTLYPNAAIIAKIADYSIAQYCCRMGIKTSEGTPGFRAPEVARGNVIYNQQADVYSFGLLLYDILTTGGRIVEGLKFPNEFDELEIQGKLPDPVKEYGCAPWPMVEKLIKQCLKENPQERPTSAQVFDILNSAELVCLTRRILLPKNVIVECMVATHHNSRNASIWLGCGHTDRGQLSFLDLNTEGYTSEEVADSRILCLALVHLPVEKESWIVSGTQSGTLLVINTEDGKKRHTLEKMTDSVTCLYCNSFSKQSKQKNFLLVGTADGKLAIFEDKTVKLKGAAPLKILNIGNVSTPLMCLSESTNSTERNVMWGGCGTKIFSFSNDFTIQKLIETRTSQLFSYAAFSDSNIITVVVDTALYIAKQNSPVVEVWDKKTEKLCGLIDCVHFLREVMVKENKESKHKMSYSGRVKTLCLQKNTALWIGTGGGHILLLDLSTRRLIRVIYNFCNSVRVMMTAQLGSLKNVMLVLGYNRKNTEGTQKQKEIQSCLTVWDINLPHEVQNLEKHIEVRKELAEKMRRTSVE
Chain of kinases (Homo sapiens, UniProt P15056, V600E) (P15056 2-766 V600E limits assumed): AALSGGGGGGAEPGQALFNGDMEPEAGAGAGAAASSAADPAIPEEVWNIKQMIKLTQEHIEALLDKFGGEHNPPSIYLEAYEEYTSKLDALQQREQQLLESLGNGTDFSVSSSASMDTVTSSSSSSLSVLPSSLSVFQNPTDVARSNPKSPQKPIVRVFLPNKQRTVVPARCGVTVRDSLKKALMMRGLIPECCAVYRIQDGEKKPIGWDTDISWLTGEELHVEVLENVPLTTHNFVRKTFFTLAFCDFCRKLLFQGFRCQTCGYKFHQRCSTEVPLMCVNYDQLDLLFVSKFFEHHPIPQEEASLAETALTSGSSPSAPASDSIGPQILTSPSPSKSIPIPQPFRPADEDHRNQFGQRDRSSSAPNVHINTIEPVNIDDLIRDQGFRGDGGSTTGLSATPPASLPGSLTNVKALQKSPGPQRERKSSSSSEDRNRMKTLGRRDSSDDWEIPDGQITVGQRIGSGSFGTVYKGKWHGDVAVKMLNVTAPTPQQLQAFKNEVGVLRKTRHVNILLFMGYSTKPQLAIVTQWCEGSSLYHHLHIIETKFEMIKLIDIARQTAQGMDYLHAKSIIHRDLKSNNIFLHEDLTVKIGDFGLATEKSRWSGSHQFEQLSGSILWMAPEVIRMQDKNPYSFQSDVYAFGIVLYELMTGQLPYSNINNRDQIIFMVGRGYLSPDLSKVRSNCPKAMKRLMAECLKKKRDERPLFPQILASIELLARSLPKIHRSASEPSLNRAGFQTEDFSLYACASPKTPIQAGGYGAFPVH

SMILES	IC50 [1] [nM]	IC50 [2] [nM]	percent inhibition BRAF V599E (kinases [3]) [%]	percent inhibition IRAK1 (kinases [4]) [%]	percent inhibition AURKB (Aurora B) (kinases [4]) [%]	percent inhibition CDK1/cyclin B (kinases [4]) [%]	percent inhibition CHEK2 (CHK2) (kinases [4]) [%]	percent inhibition CLK2 (kinases [4]) [%]	percent inhibition DYRK1A (kinases [4]) [%]	percent inhibition JAK3 (kinases [4]) [%]	percent inhibition MAPK1 (ERK2) (kinases [4]) [%]	percent inhibition MAPK8 (JNK1) (kinases [4]) [%]
COCCN1CCN(c2cc(-c3n[nH]c4ccc(OC(C)C)cc34)ncn2)CC1 [Example K10]	4.9	24										
CC(C)Oc1cc2c(-c3cc(N4C[C@@H](C)O[C@@H](C)C4)ncn3)n[nH]c2cc1F [Example D41]	2.89	22										
CC(C)Oc1cc2c(-c3cc(N4CCN(S(C)(=O)=O)CC4)ncn3)n[nH]c2cc1F [Example D24]	3.09	28										
CC(C)Oc1ccc2[nH]nc(-c3cc(N4CCOCC4)ncn3)c2c1 [Example D6]	5.95	96	2	−1	16	7	7	66	12	5	7	28
COC[C@H](C)Oc1ccc2[nH]nc(-c3cc(N4CCOCC4)ncn3)c2c1 [Example H4]	2.6	33										
CC(C)Oc1cc2c(-c3cc(N4CCN(C)CC4)ncn3)n[nH]c2cc1F [Example D25]	4.35		7	15	14	17	8	89	39	8	0	56
Cn1cc(-c2ccc3[nH]nc(-c4cc(N5CCN(S(C)(=O)=O)CC5)ncn4)c3c2)cn1 [Example A3]	3.28	36										
CC(C)Oc1ccc2[nH]nc(-c3cc(N4CCN(CCF)CC4)ncn3)c2c1 [Example D15]	5.5	34	28	−3	18	10	13	70	30	9	16	56
CC(C)Oc1ccc2[nH]nc(-c3cc(N4CCO[C@H](C)C4)ncn3)c2c1 [Example D2]	5.09	67	−11	−7	9	7	1	79	13	8	5	28
